Article PMC9657098, “Synthesis, In Vitro Biological Evaluation and In Silico Molecular Docking Studies of Indole Based Thiadiazole Derivatives as Dual Inhibitor of Acetylcholinesterase and Butyrylchloinesterase” (Molecules, 2022)
Read-outs that look alike come from different tables or passages of the source.

Legend:
AChE = AChE (Homo sapiens, UniProt P22303); assay: biochemical
Method: (§1) 3.5. Acetylcholinesterase Activity Assay Protocol
(§2) The inhibition of AChE and BChE was determined using a method described earlier.
(§3) Briefly, the stock solutions (1mg/mL) of test analogues were prepared using DMSO. The working solutions (1–100μg/mL) were prepared using serial dilutions (a serial dilution means a series of diluted solutions, e.g., 0.1mg/mL, 0.2mg/mL and so on; the solutions contained 5% DMSO and 95% water). The various concentrations of test compounds (10μL) were pre-incubated with sodium phosphate buffer (0.1 M; pH 8.0; 150μL) and AChE (0.1 U/mL; 20μL) for 15 min at 25°C. The reaction was initiated via the addition of DTNB (1 mM; 10μL) and […] (1 mM; 10 μL). The mixture of reaction was mixed using a cyclomixer and incubated for […]
(§4) wavelength against the blank reading containing 10μL DMSO instead of the test compound (the solution contained 5% DMSO and 95% water). Utilizing the formula given in Equation (1), the percentage of inhibition was computed, and the IC50 was determined under the positive control […]
(§5) % Inhibition = (Absorbance of control—Absorbance of compound)/Absorbance of control × 100 […]
(§6) which was calculated by constructing a non-linear regression graph between the percentages of inhibition vs. concentration, using Graph Pad prism software (version 5.3)(accessed on 5 August […]

BuChE = BuChE (Homo sapiens, UniProt P06276); assay: biochemical
BuChE, sequence (P06276 29-602): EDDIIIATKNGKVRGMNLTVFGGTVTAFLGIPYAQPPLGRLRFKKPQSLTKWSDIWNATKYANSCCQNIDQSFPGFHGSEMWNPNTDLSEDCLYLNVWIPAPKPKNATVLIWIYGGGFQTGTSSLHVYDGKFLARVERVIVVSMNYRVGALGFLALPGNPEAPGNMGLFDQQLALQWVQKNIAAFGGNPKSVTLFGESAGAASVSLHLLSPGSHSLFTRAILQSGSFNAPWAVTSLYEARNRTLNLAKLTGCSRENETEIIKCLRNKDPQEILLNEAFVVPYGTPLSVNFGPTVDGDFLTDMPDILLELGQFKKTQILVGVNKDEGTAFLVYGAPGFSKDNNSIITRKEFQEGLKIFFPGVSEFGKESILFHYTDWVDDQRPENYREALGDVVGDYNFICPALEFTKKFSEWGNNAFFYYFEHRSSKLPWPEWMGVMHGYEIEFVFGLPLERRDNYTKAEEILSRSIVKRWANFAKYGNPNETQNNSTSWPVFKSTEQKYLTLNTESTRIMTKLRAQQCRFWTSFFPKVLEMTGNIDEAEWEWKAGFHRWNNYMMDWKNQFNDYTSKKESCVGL
Method: as §1, §2, §3, §4, §5, §6

[1] = in vitro enzyme inhibition, read-out: BuChE IC50 (µM ± SEM)
[2] = in vitro enzyme inhibition, 25°C, pH 8.0, read-out: AChE IC50 (µM ± SEM)

AChE, sequence (P22303 32-614): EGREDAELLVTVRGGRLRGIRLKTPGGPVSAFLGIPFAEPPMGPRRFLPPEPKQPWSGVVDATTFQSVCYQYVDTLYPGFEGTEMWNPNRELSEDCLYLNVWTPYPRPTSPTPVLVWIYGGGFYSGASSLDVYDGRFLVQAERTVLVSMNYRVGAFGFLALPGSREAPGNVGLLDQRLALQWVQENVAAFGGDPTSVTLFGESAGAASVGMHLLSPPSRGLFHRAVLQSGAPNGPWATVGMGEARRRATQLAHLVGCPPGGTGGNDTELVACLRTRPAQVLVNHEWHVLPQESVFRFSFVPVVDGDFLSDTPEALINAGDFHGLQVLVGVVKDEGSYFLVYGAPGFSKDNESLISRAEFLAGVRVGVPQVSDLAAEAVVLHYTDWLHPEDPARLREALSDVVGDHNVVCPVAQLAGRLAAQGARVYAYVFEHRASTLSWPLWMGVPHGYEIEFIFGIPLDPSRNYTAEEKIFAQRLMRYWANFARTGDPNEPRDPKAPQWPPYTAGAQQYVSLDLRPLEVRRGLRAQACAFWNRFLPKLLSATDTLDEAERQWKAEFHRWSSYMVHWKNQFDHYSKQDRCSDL

Row | Compound | IC50 (AChE; read-out: IC50 for AchE (abstract)) | IC50 (BuChE; [1]) | IC50 (AChE; [2]) | IC50 (AChE) | IC50 (BuChE)
1 | Fc1ccc(Nc2nnc(Cc3cc4cc(Cl)ccc4[nH]3)s2)cc1 [Compound 8] | 0.15 ± 0.05 µM | 0.2 ± 0.1 µM |  |  | 
2 | FC(F)(F)c1ccc(Nc2nnc(Cc3cc4cc(Cl)ccc4[nH]3)s2)cc1Cl [Compound 14] |  | 2.6 ± 0.1 µM | 0.4 ± 0.05 µM |  | 
3 | O=[N+]([O-])c1cc(Br)cc(Nc2nnc(Cc3cc4cc(Cl)ccc4[nH]3)s2)c1 [Compound 11] |  | 18.4 ± 0.3 µM | 12.3 ± 0.2 µM |  | 
4 | Fc1cccc(Nc2nnc(Cc3cc4cc(Cl)ccc4[nH]3)s2)c1 [Compound 10] |  | 2.8 ± 0.1 µM | 1.1 ± 0.1 µM |  | 
5 | Cc1ccc(Nc2nnc(Cc3cc4cc(Cl)ccc4[nH]3)s2)cc1C [Compound 5] |  | 9.3 ± 0.1 µM | 5.8 ± 0.2 µM |  | 
6 | COc1cc(Nc2nnc(Cc3cc4cc(Cl)ccc4[nH]3)s2)ccc1[N+](=O)[O-] [Compound 13] |  | 25.3 ± 0.4 µM | 19.1 ± 0.3 µM |  | 
7 | COc1c(Nc2nnc(Cc3cc4cc(Cl)ccc4[nH]3)s2)cccc1[N+](=O)[O-] [Compound 12] |  | 19.2 ± 0.3 µM | 14.7 ± 0.3 µM |  | 
8 | O=[N+]([O-])c1cc(Nc2nnc(Cc3cc4cc(Cl)ccc4[nH]3)s2)ccc1Br [Compound 15] |  | 32.1 ± 0.1 µM | 22.2 ± 0.4 µM |  | 
9 | Cc1cccc(Nc2nnc(Cc3cc4cc(Cl)ccc4[nH]3)s2)c1C [Compound 6] |  | 10.9 ± 0.1 µM | 8.7 ± 0.2 µM |  | 
10 | O=[N+]([O-])c1ccc(Br)c(Nc2nnc(Cc3cc4cc(Cl)ccc4[nH]3)s2)c1 [Compound 16] |  | 34.3 ± 0.6 µM |  |  | 
11 | O=[N+]([O-])c1cccc([N+](=O)[O-])c1Nc1nnc(Cc2cc3cc(Cl)ccc3[nH]2)s1 [Compound 4] |  |  |  | 2.8 ± 0.1 µM | 5.4 ± 0.1 µM
12 | Fc1ccccc1Nc1nnc(Cc2cc3cc(Cl)ccc3[nH]2)s1 [Compound 9] |  | 0.5 ± 0.05 µM | 0.35 ± 0.05 µM |  | 
